Laboratory results from patent US20220041578A1, “ISOINDOLINE COMPOUND, AND PREPARATION METHOD, PHARMACEUTICAL COMPOSITION, AND APPLICATION OF ISOINDOLINE COMPOUND” (Shanghai Institute of Meteria Medica, Chinese Academy of …, priority 2018, published 2022).
pIC50: −log10 of the molar value.

How the values were obtained:
[1] = test system: IFNγ; assay: IFNγ expression change in anti-human CD3 stimulated PBMC (ELISA); assay type: cell-based; conditions: compound 10 nM, anti-human CD3 10 ug/ml, 24 hours
Procedure: (§1) All operations of this experiment were carried out according to the conventional experimental process of this kind of experiment at present. Peripheral blood from healthy volunteers was collected by routine standard procedure and cultured in 1640 medium (+10% FBS) to obtain PBMC. After recovery, PBMC was centrifuged and resuspended in serum-free medium. After counting, adjusted the density to be 6.25×10^5/ml; then inoculated 160 ul to a 96-well plate, 2 holes each, 1×10^5/well; 20 ul 10× compound and DMSO were added, and incubated for 1 hour in an incubator; then 20 ul 10× anti-human CD3 was added resulting the final concentration of 10 ug/ml and incubated in an incubator for 24 hours. Centrifuged the cell plate at 1500 rpm and aspirated 50 ul supernatant according to the ELISA operation. After operating according to the kit, a microplate reader was used to read at 450 nm. The concentration of compound was 10 nM, and DMSO was added as control group. Materials used in this experiment: 96 well plate (Corning, #3599), ELISA kit (Thermo), LPS (Sigma, USA). It was found from the test results of the following table that the compounds of the examples of the present invention could be used to regulate the expression of IFNγ.

[2] = test system: TNF-α; assay: TNF-α activity inhibition experiment in LPS-stimulated PBMC (ELISA); assay type: cell-based; conditions: Homo sapiens, compound 10 nM, LPS 1 ug/ml, 72 hours, read-out: Inhibition rate of TNF-a (%)
Procedure: as §1, with “plate,” for “plate, 2 holes each,”, “ul 10 XLPS” for “ul 10× anti-human CD3”, “of 1” for “of 10”, “for 72” for “for 24”, “USA).” for “USA). It was found from the test results of the following table that the compounds of the examples of the present invention could be used to regulate the expression of IFNγ.”

[3] = test system: IL-2; assay: IL-2 expression change in anti-human CD3 stimulated PBMC (ELISA); assay type: cell-based; conditions: compound 10 nM, anti-human CD3 10 ug/ml, 24 hours
Procedure: as §1, with “USA).” for “USA). It was found from the test results of the following table that the compounds of the examples of the present invention could be used to regulate the expression of IFNγ.”

[4] = target: T1, CRBN (Homo sapiens, UniProt Q96SW2); assay: Verification of interaction between compound and CRBN (elution from thalidomide FG beads, Western blotting); assay type: binding; parameters: dose or concentration left out as unconfirmed; conditions: Mino cell lysate, 25° C., 15 minutes, Western blotting with CRBN antibody
T1 construct: lyse the blood tumor Mino cells, and centrifuged to obtain a clear cell lysate; endogenous in cells; host or cells: Mino cells (mantle cell lymphoma), lysate
Text: Studies have shown that lenalidomide immunomodulators in hematological tumor cell lines regulate the activity of CRBN-ubiquitin ligase complex by binding to CRBN, selectively induce ubiquitination and degradation of transcription factors IKZF1 and IKZF3, thereby achieving the role of treating malignant hematological tumors (Science, 2014, 343, 301; Science, 2014, 343, 305; Nature, 2015, 523, 183). By using high-efficiency affinity magnetic nanoparticles “FG beads”, thalidomide analogues were pre-attached to the magnetic beads, and the thalidomide FG beads could catch CRBN protein (Leukemia, 2012, 26, 2326; Science, 2010, 327, 1345). In this experiment, NP-400 cell lysate was used to lyse the blood tumor Mino cells, and centrifuged to obtain a clear cell lysate and divided it into three samples evenly. Thalidomide FG beads were added to the three samples, and the Thalidomide FG beads and the cell lysate were combined and incubated at 4° C. for 6 hours. After the incubation was completed, separated the magnetic beads with a magnetic stand, resuspended the separation with NP-400 lysate, repeated 3 times to obtain magnetic beads removed excess cell lysate. […] The eluate was denatured by heating with SDS Loading Buffer, and the amount of CRBN in each sample was detected by Western blotting with CRBN antibody (Proteintech).

[5] = test system: MM.1S cells; assay: Effect of the compound on the proliferation of MM.1S cells (MTS); assay type: cell-based; conditions: Homo sapiens, MM1.S, 168 h, 7 days, read-out: Cell inhibitory activity (IC50)
Outline: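 In 1640 medium + 10% FBS, 20,000 cells per well were treated with 5-fold compound dilutions at 0.2% DMSO for 7 days at 37° C., 5% CO2. MTS was read after 3–4 h as OD490−OD690, inhibition was calculated against DMSO and blank wells, and IC50 was fitted; three independent experiments were run.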

[6] = test system: Mino cells; assay: Effect of the compound on the proliferation of Mino cells (MTS); assay type: cell-based; conditions: Homo sapiens, 72 h, 3 days, read-out: Inhibitory activity (IC50)
Outline: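 Mino cells, 8000/well, treated 3 days at 37 °C/5% CO2 with 5-fold compound dilutions from 10 mM stock (0.2% DMSO final). MTS added for 3-4 h; OD490 minus OD690 read, inhibition relative to DMSO and blank, IC50 fitted. Three repeats, each in triplicate.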

T1 sequence (Q96SW2 whole entry): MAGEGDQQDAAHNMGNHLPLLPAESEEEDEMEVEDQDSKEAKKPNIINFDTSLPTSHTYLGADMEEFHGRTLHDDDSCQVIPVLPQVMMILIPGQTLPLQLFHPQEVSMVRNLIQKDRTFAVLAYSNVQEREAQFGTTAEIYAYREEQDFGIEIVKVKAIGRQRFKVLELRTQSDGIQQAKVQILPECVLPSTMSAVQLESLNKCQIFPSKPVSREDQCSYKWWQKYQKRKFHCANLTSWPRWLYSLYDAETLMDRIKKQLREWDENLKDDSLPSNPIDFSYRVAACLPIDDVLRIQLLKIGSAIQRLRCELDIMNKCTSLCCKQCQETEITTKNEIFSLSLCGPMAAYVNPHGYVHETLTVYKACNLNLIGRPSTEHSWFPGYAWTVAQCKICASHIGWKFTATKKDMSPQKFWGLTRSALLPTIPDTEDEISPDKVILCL

Row | pIC50 [5] | Structure (SMILES) | Increase multiple of IFNγ expression [1] | inhibition at 0.01 µM [2] [%] | Increase multiple of IL-2 Expression [3] | Elution of CRBN from thalidomide FG beads [4] | pIC50 [6]
1 | – | O=C1CCC(N2Cc3c(OCc4cn(-c5ccc(OC(F)(F)F)cc5)nn4)cccc3C2=O)C(=O)N1 (stereo not drawn) [CCC-135 (compound 17)] | >1.5 | > 50 | >3 | – | –
2 | > 6.82 | O=C1CCC(N2Cc3c(OCc4cn(-c5ccc(OC(F)(F)F)cc5)nn4)cccc3C2=O)C(=O)N1 (stereo not drawn) [Compound 17] | – | – | – | can elute CRBN from the magnetic beads bound to thalidomide | > 6.82
